The nature of data set [1]: Blood level in the rat after one-time intravenous injection. Format: in vivo. The conditions noted are these: one-time i.v. injection, Ultravist 300 mg I/kg, example 4c 200 mg I/kg, especially first 10 minutes, average of three animals, FIG. 1. How it is done:
The blood level in the rat was determined after one-time intravenous injection of 300 mg of I/kg of body weight of Ultravist®[]. and 200 mg of I/kg of body weight of the compound of example 4c [.diamond.]. The data represent the average value from three animals each.

Data set [2] is described as follows: Elimination from and retention in the body of the rat. The data set is classed as in vivo.

`COCC(=O)Nc1c(I)c(C(=O)NCC(O)CO)c(I)c(C(=O)N(C)CC(O)CO)c1I` (centres unmarked) [Ultravist, reference compound]: the “blood concentration over time, standardized to the administered dose” value in data set [1] is “very much more quickly”.
For “Octatetracontakis-{3-sodium carboxylatoformylamino-5-(2,3-dihydroxypropylcarbamoyl)-2,4,6-triiodobenzoyl} derivative of the lysine-alanine copolymer (K5)8 K4 K2 K-A--OH [Example 4]”, the “blood concentration over time, standardized to the administered dose” value in data set [1] was “remains very much longer in the blood space”. Moreover, the route of elimination result in data set [2] is “mainly through the kidney”. Besides, the “elimination from the body” value in data set [2] (dose 100 mg of I/kg) was “complete elimination”. In addition, the “retention in the organs liver, kidney and spleen as well as in the remainder of the body” value in data set [2] (dose 100 mg of I/kg, 14 days after administration) is 0.36 % of the dose.

For the origin of these results see patent US5756066A, “Iodine-containing peptides” (Schering Aktiengesellschaft, priority 1995, dated 1998).
